System: 624824-186-R-J2-PDC multicell spheroids, viability
Assay: Anticancer human tumor 624824-186-R-J2-PDC patient-derived colon adenocarcinoma cell line growth inhibition [PI3K]
Conditions: for IC50: curve of first compound; for viability, T/C: stronger effect = lower value
Procedure, shortened: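 We assembled tumor spheroids that included a stromal compartment of HUVEC and MSCs, then exposed them to targeted agents alone and together with PI3K pathway inhibitors. Concentration series descended by half-log from clinically achievable Cmax levels. Viability served as the endpoint.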

[1] = second compound 0.00316 µM, first compound 0.0316 µM
[2] = second compound 0.00316 µM, first compound 0.1 µM
[3] = second compound 0.00316 µM, first compound 0.316 µM
[4] = second compound 0.00316 µM, first compound 1 µM
[5] = second compound 0.00316 µM, first compound 3.16 µM
[6] = second compound 0.00316 µM, first compound 10 µM
[7] = second compound 0.01 µM, first compound 0.0316 µM
[8] = second compound 0.01 µM, first compound 0.1 µM
[9] = second compound 0.01 µM, first compound 0.316 µM
[10] = second compound 0.01 µM, first compound 1 µM
[11] = second compound 0.01 µM, first compound 3.16 µM
[12] = second compound 0.01 µM, first compound 10 µM
[13] = second compound 0.0316 µM, first compound 0.0316 µM
[14] = second compound 0.0316 µM, first compound 0.1 µM
[15] = second compound 0.0316 µM, first compound 0.316 µM
[16] = second compound 0.0316 µM, first compound 1 µM
[17] = second compound 0.0316 µM, first compound 3.16 µM
[18] = second compound 0.0316 µM, first compound 10 µM
[19] = second compound 0.1 µM, first compound 0.0316 µM
[20] = second compound 0.1 µM, first compound 0.1 µM
[21] = second compound 0.1 µM, first compound 0.316 µM
[22] = second compound 0.1 µM, first compound 1 µM
[23] = second compound 0.1 µM, first compound 3.16 µM
[24] = second compound 0.1 µM, first compound 10 µM
[25] = second compound 0.316 µM, first compound 0.0316 µM
[26] = second compound 0.316 µM, first compound 0.1 µM
[27] = second compound 0.316 µM, first compound 0.316 µM
[28] = second compound 0.316 µM, first compound 1 µM
[29] = second compound 0.316 µM, first compound 3.16 µM
[30] = second compound 0.316 µM, first compound 10 µM
[31] = second compound 1 µM, first compound 0.0316 µM
[32] = second compound 1 µM, first compound 0.1 µM
[33] = second compound 1 µM, first compound 0.316 µM
[34] = second compound 1 µM, first compound 1 µM
[35] = second compound 1 µM, first compound 3.16 µM
[36] = second compound 1 µM, first compound 10 µM
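Further: spheroids exposed to agents for 7 days before viability read.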
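Wherever viability, T/C is given: 100% = DMSO vehicle treated spheroids.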

In the case of `C#Cc1c(F)ccc2cc(O)cc(-c3ncc4c(N5CC6CCC(C5)N6)nc(OCC56CCCN5CC(F)C6)nc4c3F)c12` (centres undefined) + CC(Nc1ccc2c(c1)OCCn1cc(N3C(=O)OCC3C(F)F)nc1-2)C(N)=O, the IC50 (second compound 0.00316 µM) is reported as over 10 µM, the IC50 (second compound 0.01 µM) is reported as over 10 µM and the IC50 (second compound 0.0316 µM) is reported as over 10 µM. For the same compound, the IC50 (second compound 0.1 µM) was over 10 µM, the IC50 (second compound 0.316 µM) was over 10 µM and the IC50 (second compound 1 µM) was over 10 µM. For the same compound, the viability, T/C [1] was 90%, the viability, T/C [2] was 98.3% and the viability, T/C [3] was 123%. For the same compound, the viability, T/C [4] was 87.4%, the viability, T/C [5] was 105% and the viability, T/C [6] was 106%. For the same compound, the viability, T/C [7] was 116%, the viability, T/C [8] was 103% and the viability, T/C [9] was 82.6%. For the same compound, the viability, T/C [10] was 89%, the viability, T/C [11] was 94.9% and the viability, T/C [12] was 86.5%. The viability, T/C [13] was 91.6%, the viability, T/C [14] was 116% and the viability, T/C [15] was 79.2%. For the same compound, the viability, T/C [16] was 102%, the viability, T/C [17] was 106% and the viability, T/C [18] was 82.2%. The viability, T/C [19] was 121%, the viability, T/C [20] was 88.1% and the viability, T/C [21] was 80.6%. It also gave a viability, T/C [22] of 82.5%, a viability, T/C [23] of 93.3% and a viability, T/C [24] of 100%. For the same compound, the viability, T/C [25] was 101%, the viability, T/C [26] was 76.2% and the viability, T/C [27] was 79%. For the same compound, the viability, T/C [28] was 85.1%, the viability, T/C [29] was 86.8% and the viability, T/C [30] was 81.8%. It also gave a viability, T/C [31] of 78.1%, a viability, T/C [32] of 80.3% and a viability, T/C [33] of 82%. The viability, T/C [34] was 94.4%, the viability, T/C [35] was 93.2% and the viability, T/C [36] was 91.1%.

Compound `C=CC(=O)N1CCN(c2nc(=O)n(-c3c(C)ccnc3C(C)C)c3nc(-c4c(O)cccc4F)c(F)cc23)C(C)C1` (centres undefined) + CC(Nc1ccc2c(c1)OCCn1cc(N3C(=O)OCC3C(F)F)nc1-2)C(N)=O has an IC50 (second compound 0.00316 µM) of over 10 µM, an IC50 (second compound 0.01 µM) of over 10 µM and an IC50 (second compound 0.0316 µM) of over 10 µM. The IC50 (second compound 0.1 µM) was over 10 µM, the IC50 (second compound 0.316 µM) was over 10 µM and the IC50 (second compound 1 µM) was over 10 µM. It also gave a viability, T/C [1] of 103%, a viability, T/C [2] of 88.3% and a viability, T/C [3] of 94.2%. The viability, T/C [4] was 97.8%, the viability, T/C [5] was 117% and the viability, T/C [6] was 110%. For the same compound, the viability, T/C [7] was 92.6%, the viability, T/C [8] was 88% and the viability, T/C [9] was 88.3%. The viability, T/C [10] was 87.7%, the viability, T/C [11] was 80.3% and the viability, T/C [12] was 96.9%. It also gave a viability, T/C [13] of 109%, a viability, T/C [14] of 92.3% and a viability, T/C [15] of 105%. For the same compound, the viability, T/C [16] was 87.3%, the viability, T/C [17] was 101% and the viability, T/C [18] was 85.4%. The viability, T/C [19] was 112%, the viability, T/C [20] was 82.1% and the viability, T/C [21] was 106%. It also gave a viability, T/C [22] of 104%, a viability, T/C [23] of 81.2% and a viability, T/C [24] of 103%. It also gave a viability, T/C [25] of 83.3%, a viability, T/C [26] of 104% and a viability, T/C [27] of 107%. For the same compound, the viability, T/C [28] was 84.1%, the viability, T/C [29] was 88.7% and the viability, T/C [30] was 79.2%. It also gave a viability, T/C [31] of 90.7%, a viability, T/C [32] of 90% and a viability, T/C [33] of 81.1%. It also gave a viability, T/C [34] of 92.4%, a viability, T/C [35] of 85.6% and a viability, T/C [36] of 78%.

Reference: PubChem BioAssay AID1963975 (Molecular Pharmacology Branch, DTP, NCI, 2024)
